The values below come from PMC10811918, “Mechanisms of Bushen Tiaoxue Granules against controlled ovarian hyperstimulation-induced abnormal morphology of endometrium based on network pharmacology” (Journal of Ovarian Research, 2024).

Series [1] deals with Human endometrial stromal cells (hESC). The series is described as follows: Cytotoxicity on hESC (CCK8 cell viability). In kind it is cell-based. The following applies: for IC50: read-out: IC50 (inhibition of hESC proliferation). The protocol: Human endometrial stromal cells (hESC) were obtained from the Meisen Chinese Tissue Culture Collections (Zhejiang, China). The basal culture medium for hESC comprised DMEM/F12 supplemented with 10% fetal bovine serum (FBS) and 1% penicillin–streptomycin. The culture environment was maintained at 5% CO2 and 37 °C. […] Six gradients of concentrations were established to determine the IC50 of these compounds.
(§1) D-Galactose (D-Gal) was procured from Solabio Company (Beijing, China) and prepared in DMEM/F12 at a concentration of 200 mM as the modeling drug. hESC were uniformly seeded at 4 × 10^3 cells/well in a 96-well plate with 6 replicates per group, while wells treated only with basal culture medium served as the control group. Following cell adhesion, a 24-h intervention with 200 mM D-Gal was administered, followed by a 24-h culture with the appropriate concentration of natural product selected from the screening. CCK8 solution (Solabio, Beijing, China) was added to the wells and incubated in the culture chamber for 2 h, and absorbance was recorded at 450 nm using a microplate reader (Bio-Rad, USA).
All data in this study were analyzed by SPSS 22.0 software, and the results were presented as mean ± SEM. The one-way ANOVA, followed with Turkey’s test was performed for multiple comparison. p value < 0.05 was considered statistically significant. GraphPad Prism is utilized for calculating IC50 values and organizing graphs.
Previous studies have identified an increased senescent phenotype in endometrial stromal cells post COH, which is unfavorable for decidualization during embryo implantation. D-Gal is a widely recognized mimetic agent causing oxidative stress damage and promoting aging.

Another series concerns mouse embryos. Details: method as in PMID 25896022. The following applies: cited from earlier work.
In series [2] the test system is hESC with D-Gal-induced damage. The series is described as follows: Protection against D-Gal-induced damage in hESC (CCK-8). In kind it is cell-based, Human. The following applies: 200 mM D-Gal 24 h, then compound 24 h at two concentrations: quercetin 50/25 μM, taxifolin 260/130 μM, kaempferol 400/200 μM, eriodictyol 230/115 μM, isorhamnetin 500/250 μM. The protocol: as §1
Cell viability was assessed using CCK-8 assay (Fig. 10A).

For series [3] the following is noted: cited from earlier work.
Series [4] can be described thus: Blood drug concentration of kaempferol following BTG administration. In kind it is in vivo, rat. As to conditions: rats, BTG 3.27 g/kg oral gavage for 3 days, sampling 10 min to 12 h. The source says: Supplementary file 13048_2023_1339_MOESM1_ESM.pdf: Additional file 1: Table S1. Composition of the BTG. Table S2. Identification of chemical components in BTG. Table S3. Affinity of ingredients with potential targets. Figure S1. […] Upon usage, it was sequentially diluted to obtain concentration gradient solutions. Utilizing the same 50 female SD rats as employed in the in vivo experiment, two rats constituted the blank control group, while the remaining 48 rats were divided into treatment groups, each consisting of 6 rats. […] The blood samples were centrifuged at 4°C, 3500 rpm for 10 min, and the supernatant was analyzed. Following the UPLC-MS analysis method described earlier, the peak areas of the analyte and internal standard were recorded to calculate the blood drug concentrations at each time point. […] The serum levels of (A) ALT, (B) AST, (C) CREA, (D) UA, and (E) UREA in each group of rats were measured using microplate assays. […]
stock solution of 200 μg/mL for the mixed control solution. […] The blood samples were centrifuged at 4°C, 3500 rpm for 10 min, and the supernatant was analyzed. Following the UPLC-MS analysis method described earlier, the peak areas of the analyte and internal standard were recorded to calculate the blood drug concentrations at each time point. […]

For another series, the system named is mice. As to conditions: dose higher than 800 μg; cited from earlier work.
Where [5] appears, read: hESC, six concentration gradients.

Read-outs that look alike come from different tables or passages of the source.

With `O=C[C@H](O)[C@@H](O)[C@@H](O)[C@H](O)CO` [D-Gal, D-Galactose, reference compound], the inhibition at 200000 µM in series [1] (hESCs, 200 mM, read-out: inhibition of cell proliferation) is approximately 50%.

Regarding `O=C(O)[C@H]1O[C@@H](Oc2cc3oc(-c4ccccc4)cc(=O)c3c(O)c2O)[C@H](O)[C@@H](O)[C@@H]1O` [baicalin], in the series with mouse embryos, the “adhesion rate and implantation rate of mouse embryos” value is given as “increase”.

With `O=C1C[C@@H](c2ccc(O)c(O)c2)Oc2cc(O)cc(O)c21` [eriodictyol], in series [1] (setting [5]), the IC50 is 233 µM. Moreover, in series [2], the “improvement of cellular viability damage caused by D-Gal” value (from here on “improvement”) is on record as “effective improvement”.

As to `COc1cc(-c2oc3cc(O)cc(O)c3c(=O)c2O)ccc1O` [isorhamnetin], in series [1] (setting [5]), the IC50 was more than 500 µM. In addition, the “improvement” value in series [2] is listed as “failed to effectively ameliorate”.

In the case of `O=c1c(O)c(-c2ccc(O)cc2)oc2cc(O)cc(O)c12` [kaempferol], the oral bioavailability in series [3] is on record as 41.88%. In series [4], the “kaempferol concentration in the blood following BTG administration” value was “sustained detectable concentrations even at 8 h”. In addition, the IC50 in series [1] was 399 µM. In addition, the “improvement” value in series [2] is listed as “effective improvement”.

Turning to `CS(=O)(=O)Nc1ccc([N+](=O)[O-])cc1Oc1ccccc1` [nimesulide], the implantation sites entry in the series on mice is “reduced”.

Turning to `O=c1c(O)c(-c2ccc(O)c(O)c2)oc2cc(O)cc(O)c12` [quercetin], the oral bioavailability in series [3] is given as 46.43%. Moreover, the IC50 in series [1] worked out at 45.4 µM. Moreover, the “improvement” value in series [2] is given as “failed to effectively ameliorate”.

Take `O=C1c2c(O)cc(O)cc2OC(c2ccc(O)c(O)c2)C1O` (stereo not shown) [taxifolin]: the IC50 in series [1] (setting [5]) came out at 263 µM. Moreover, the “improvement” value in series [2] is reported as “effective improvement”.
